Laboratory results reported in patent US20240400615A1, “PEPTIDE HAVING ANTI-OBESITY ACTIVITY AND USES THEREOF” (CAREGEN CO., LTD., priority 2021, published 2024).

Tests used:
Type in all cases: cell-based
3T3-L1 adipocytes = experiment: Glycerol colorimetric assay, free glycerol released from adipocytes; settings: 5 μM and 50 μM peptide, 48 hours, supernatant
Protocol: (§1) First, in order to differentiate pre-adipocytes into adipocytes, pre-adipocytes and 3T3-L1 cells purchased from the American Type Culture Collection (ATCC) were cultured in DMEM including 2% fetal bovine serum (FBS). In order to differentiate 3T3-L1 cells into adipocytes, the culture was dispensed into a 12-well plate at a density of 1×10^5 cells/well, and 2 days after the time-point of achieving the confluent growth (day 0), the culture medium was replaced with DMEM medium including 10% FBS, 10 μg/mL insulin, 0.5 mM isobutylmethylxanthine (IBMX)(Sigma, USA), and 1 μM dexamethasone (Sigma. USA), and cultured. After 2 days (day 2), the culture medium was replaced with DMEM medium including 10% FBS and 10 μg/mL insulin and cultured, and 3 days thereafter (day 5), the culture medium was replaced with a medium including only 10% FBS Two days thereafter (day 7), the cells were named 3T3-L1 adipocytes and cultured under the conditions of 37° C., 5% CO2 environment. […]
Specifically, adipocytes differentiated in Preparation Example 1 were treated with the peptide of SEQ ID NO: 1 at concentrations of 5 μM and 50 μM, and treated with 20 nM of TNFα, as a positive control, followed by culturing for 48 hours. After obtaining the supernatant, the amount of glycerol was measured using a glycerol colorimetric assay kit (Cayman Chemical, USA).

PGC1α = experiment: RT-PCR of thermogenesis-related gene PGC1α in adipocytes; settings: 3T3-L1 adipocytes, 5 μM and 50 μM peptide, 72 hours, GAPDH internal control
Protocol: (§2) First, in order to differentiate pre-adipocytes into adipocytes, pre-adipocytes and 3T3-L1 cells purchased from the American Type Culture Collection (ATCC) were cultured in DMEM including 2% fetal bovine serum (FBS). In order to differentiate 3T3-L1 cells into adipocytes, the culture was dispensed into a 12-well plate at a density of 1×10^5 cells/well, and 2 days after the time-point of achieving the confluent growth (day 0), the culture medium was replaced with DMEM medium including 10% FBS, 10 μg/mL insulin, 0.5 mM isobutylmethylxanthine (IBMX)(Sigma, USA), and 1 μM dexamethasone (Sigma. USA), and cultured. After 2 days (day 2), the culture medium was replaced with DMEM medium including 10% FBS and 10 μg/mL insulin and cultured, and 3 days thereafter (day 5), the culture medium was replaced with a medium including only 10% FBS Two days thereafter (day 7), the cells were named 3T3-L1 adipocytes and cultured under the conditions of 37° C., 5% CO2 environment. The adipocytes which were induced to differentiate for 10 days were used in subsequent experiments.
(§3) In order to confirm whether the peptide of the present invention has the effect of preventing or treating obesity, the levels of mRNA expression of PGC1α1, Tbx1, FGF21, and UCP1, which are thermogenesis-related genes in brown adipocytes, were examined. […]

HSL = experiment: RT-PCR of lipolysis-related gene HSL in adipocytes; settings: 3T3-L1 adipocytes, 5 μM and 50 μM peptide, 72 hours, GAPDH internal control
Protocol: as §2
(§4) In adipocytes, in order to confirm whether the peptide of the present invention has the effect of activating the lipolysis-promoting cell signaling pathway. mRNA expression levels of HSL, ATGL, and perilipin1 genes associated with lipolysis promotion were examined. […]

UCP1 [1] = experiment: Western blot of thermogenesis-related protein UCP1 in adipocytes; settings: 3T3-L1 adipocytes, 5 μM and 50 μM peptide, 24 hours
Protocol: as §1
(§5) Specifically, the adipocytes obtained in Preparation Example 1 were treated with 5 μM and 50 μM of the peptide of SEQ ID NO: 1, respectively. […] Then, the protein was quantified and subjected to Western blotting was performed using an anti-PRDM16 antibody (Cell signaling technology (CST), USA) and an anti-UCP1 antibody (Abcam, England).

FGF21 = experiment: RT-PCR of thermogenesis-related gene FGF21 in adipocytes; settings: 3T3-L1 adipocytes, 5 μM and 50 μM peptide, 72 hours, GAPDH internal control
Protocol: as §2, §3

Tbx1 = experiment: RT-PCR of thermogenesis-related gene Tbx1 in adipocytes; settings: 3T3-L1 adipocytes, 5 μM and 50 μM peptide, 72 hours, GAPDH internal control
Protocol: as §2, §3

pHSL = experiment: Western blot of pHSL in adipocytes; settings: 3T3-L1 adipocytes, 5 μM and 50 μM peptide, 1 hour, Western blot with anti-pHSL antibody
Protocol: as §1
Specifically, the adipocytes differentiated in Preparation Example 1 were treated with 5 μM and 50 μM of the peptide of SEQ ID NO: 1, and after 1 hour, the cells were recovered and treated with a cell lysis buffer to obtain a lysate. Then, the protein was quantified and subjected to Western blotting using an anti-pHSL antibody (Cell Signaling Technology (CST), USA).

perilipin1 = experiment: RT-PCR of lipolysis-related gene perilipin1 in adipocytes; settings: 3T3-L1 adipocytes, 5 μM and 50 μM peptide, 72 hours, GAPDH internal control
Protocol: as §2, §4

ATGL = experiment: RT-PCR of lipolysis-related gene ATGL in adipocytes; settings: 3T3-L1 adipocytes, 5 μM and 50 μM peptide, 72 hours, GAPDH internal control
Protocol: as §2, §4

PRDM16 = experiment: Western blot of thermogenesis-related protein PRDM16 in adipocytes; settings: 3T3-L1 adipocytes, 5 μM and 50 μM peptide, 24 hours
Protocol: as §1, §5

UCP1 [2] = experiment: RT-PCR of thermogenesis-related gene UCP1 in adipocytes; settings: 3T3-L1 adipocytes, 5 μM and 50 μM peptide, 72 hours, GAPDH internal control
Protocol: as §2, §3

DYNMKWIHVY [SEQ ID NO: 1]
amount of glycerol released (3T3-L1 adipocytes): increased in a concentration-dependent manner | mRNA expression of PGC1α gene (PGC1α): increased | mRNA expression of HSL gene (HSL): increased | expression of UCP1 protein (UCP1 [1]): increased | mRNA expression of FGF21 gene (FGF21): increased | mRNA expression of Tbx1 gene (Tbx1): increased | phosphorylation of HSL protein (pHSL): increased | mRNA expression of perilipin1 gene (perilipin1): increased | mRNA expression of ATGL gene (ATGL): increased | expression of PRDM16 protein (PRDM16): increased | mRNA expression of UCP1 gene (UCP1 [2]): increased
